Where two headings read alike, the source gives them in different places.
Molecular target: T1, BCL6 (Homo sapiens, UniProt P41182)
T1 construct: endogenous in cells; host or cells: T47D breast cancer epithelial cells
Assay: Immunofluorescence protocol for high content imaging of BCL6 (degradation) in T47D cells, 3 days compound treatment
Assay type: cell-based
Conditions: for Dmax: read-out: Mean Dmax (%)** category; for DC50: read-out: Mean DC50 (nM)* category
Procedure, shortened: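 Remaining BCL6 in breast cancer T47D cells was measured by high-content immunofluorescence imaging after 3 days of treatment with serially diluted compound (top 0.1 or 1 μM). Nuclei were stained with Hoechst and cells with CellMask.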

[1] = T47D cells, 3 days compound treatment

Row | Compound | Dmax (T47D) | DC50 | DC50 [1] | Dmax [1]
1 | CNC(=O)COc1cc2cc(Nc3nc(N4CCC(O[C@H]5C[C@H](N6CCC(O)(c7ccc8c(c7)C(=O)N(C7CCC(=O)NC7=O)C8=O)CC6)C5)CC4)ncc3Cl)ccc2n(C(C)C)c1=O (stereo partly drawn) [Compound 275, 2-({6-[(5-chloro-2-{4-[(1r,3r)-3-{4-[2-(2,6-dioxopiperidin-3-yl)-1,3-dioxoisoindol-5-yl]-4-hydroxypiperidin-1-yl}cyclobutoxy]piperidin-1-yl}pyrimidin-4-yl)amino]-1-isopropyl-2-oxoquinolin-3-yl}oxy)-N-methylacetamide] | ≥ 70% | < 10 nM |  | 
2 | CNC(=O)COc1cc2cc(Nc3nc(N4CCC(O[C@H]5C[C@H](N6CC7(CCN(c8ccc9c(c8)CN(C8CCC(=O)NC8=O)C9=O)C7)C6)C5)CC4)ncc3Cl)ccc2n(C(C)C)c1=O (stereo partly drawn) [Compound 351, 2-({6-[(5-chloro-2-{4-[(1r,3r)-3-{6-[2-(2,6-dioxopiperidin-3-yl)-1-oxo-2,3-dihydro-1H-isoindol-5-yl]-2,6-diazaspiro [3.4]octan-2-yl}cyclobutoxy]piperidin-1-yl}pyrimidin-4-yl)amino]-2-oxo-1-(propan-2-yl)-1,2-dihydroquinolin-3-yl}oxy)-N-methylacetamide] | ≥ 70% | < 10 nM |  | 
3 | CNC(=O)COc1cc2cc(Nc3nc(N4CCC(O[C@H]5C[C@H](N6CCC(c7ccc8c(c7F)[C@@H](C)N([C@H]7CCC(=O)NC7=O)C8=O)CC6)C5)CC4)ncc3Cl)ccc2n(C(C)C)c1=O [Compound 288, 2-({6-[(5-chloro-2-{4-[(1r,3r)-3-{4-[(3R)-2-[(3S)-2,6-dioxopiperidin-3-yl]-4-fluoro-3-methyl-1-oxo-2,3-dihydro-1H-isoindol-5-yl]piperidin-1-yl}cyclobutoxy]piperidin-1-yl}pyrimidin-4-yl)amino]-2-oxo-1-(propan-2-yl)-1,2-dihydroquinolin-3-yl}oxy)-N-methylacetamide] | < 50% | 10 to 50 nM |  | 
4 | CNC(=O)COc1cc2cc(Nc3nc(N4CCC(OC5CCC6(CC5)CN(c5cc7c(cc5F)C(=O)N(C5CCC(=O)NC5=O)C7)C6)CC4)ncc3Cl)ccc2n(C(C)C)c1=O (stereo not drawn) [Compound 123, 2-{[6-({5-chloro-2-[4-({2-[2-(2,6-dioxopiperidin-3-yl)-6-fluoro-1-oxo-2,3-dihydro-1H-isoindol-5-yl]-2-azaspiro [3.5]nonan-7-yl}oxy)piperidin-1-yl]pyrimidin-4-yl}amino)-2-oxo-1-(propan-2-yl)-1,2-dihydroquinolin-3-yl]oxy}-N-methylacetamide] |  |  | < 10 nM | ≥ 70%
5 | CNC(=O)COc1cc2cc(Nc3nc(N4CCC(C(C)(C)N5CCC6(CC5)CN(c5c(OC)ccc7c5CN(C5CCC(=O)NC5=O)C7=O)C6)CC4)ncc3Cl)ccc2n(C(C)C)c1=O (stereo not drawn) [Compound 327, 2-{[6-({5-chloro-2-[4-(2-{2-[2-(2,6-dioxopiperidin-3-yl)-5-methoxy-1-oxo-2,3-dihydro-1H-isoindol-4-yl]-2,7-diazaspiro[3.5]nonan-7-yl}propan-2-yl)piperidin-1-yl]pyrimidin-4-yl}amino)-2-oxo-1-(propan-2-yl)-1,2-dihydroquinolin-3-yl]oxy}-N-methylacetamide] | ≥ 70% | < 10 nM |  | 
6 | CNC(=O)COc1cc2cc(Nc3nc(N4CCC(N(C)C5CCC6(CC5)CN(c5ccc7c(c5)C(=O)N(C5CCC(=O)NC5=O)C7=O)C6)CC4)ncc3Cl)ccc2n(C(C)C)c1=O (stereo not drawn) [Compound 308, 2-{[6-({5-chloro-2-[4-({2-[2-(2,6-dioxopiperidin-3-yl)-1,3-dioxo-2,3-dihydro-1H-isoindol-5-yl]-2-azaspiro[3.5]nonan-7-yl} (methyl)amino)piperidin-1-yl]pyrimidin-4-yl}amino)-2-oxo-1-(propan-2-yl)-1,2-dihydroquinolin-3-yl]oxy}-N-methylacetamide] | 50 to 70% | < 10 nM |  | 
7 | CNC(=O)COc1cc2cc(Nc3nc(N4CCC(C(C)(C)N5CCC6(CC5)CN(c5ccc7c(c5)CN(C5CCC(=O)NC5=O)C7=O)C6)CC4)ncc3Cl)ccc2n(C(C)C)c1=O (stereo not drawn) [Compound 58, 2-{[6-({5-chloro-2-[4-(2-{2-[2-(2,6-dioxopiperidin-3-yl)-1-oxo-2,3-dihydro-1H-isoindol-5-yl]-2,7-diazaspiro[3.5]nonan-7-yl}propan-2-yl)piperidin-1-yl]pyrimidin-4-yl}amino)-2-oxo-1-(propan-2-yl)-1,2-dihydroquinolin-3-yl]oxy}-N-methylacetamide] |  |  | < 10 nM | ≥ 70%
8 | CNC(=O)COc1cc2cc(Nc3nc(N4CCC(O[C@H]5C[C@H](N6CC7(CN(c8ccc9c(c8C)C(=O)N(C8CCC(=O)NC8=O)C9=O)C7)C6)C5)CC4)ncc3Cl)ccc2n(C(C)C)c1=O (stereo partly drawn) [Compound 420, 2-({6-[(5-chloro-2-{4-[(1r,3r)-3-{6-[2-(2,6-dioxopiperidin-3-yl)-4-methyl-1,3-dioxo-2,3-dihydro-1H-isoindol-5-yl]-2,6-diazaspiro[3.3]heptan-2-yl}cyclobutoxy]piperidin-1-yl}pyrimidin-4-yl)amino]-2-oxo-1-(propan-2-yl)-1,2-dihydroquinolin-3-yl}oxy)-N-methylacetamide] | ≥ 70% | < 10 nM |  | 
9 | CNC(=O)COc1cc2cc(Nc3nc(N4CCC(CN5CC6(CCN(c7cc8c(cc7F)C(=O)N(C7CCC(=O)NC7=O)C8)CC6)C5)CC4)ncc3Cl)ccc2n(C(C)C)c1=O (stereo not drawn) [Compound 84] |  |  | < 10 nM | ≥ 70%
10 | CNC(=O)COc1cc2cc(Nc3nc(N4CCC(O[C@H]5C[C@H](N6CC[C@H](c7ccc8c(c7F)CN([C@H]7CCC(=O)NC7=O)C8=O)C[C@H]6C)C5)CC4)ncc3Cl)ccc2n(C(C)C)c1=O [Compound 295, 2-({6-[(5-chloro-2-{4-[(1r,3r)-3-[(2R,4S)-4-{2-[(3S)-2,6-dioxopiperidin-3-yl]-4-fluoro-1-oxo-2,3-dihydro-1H-isoindol-5-yl}-2-methylpiperidin-1-yl]cyclobutoxy]piperidin-1-yl}pyrimidin-4-yl)amino]-2-oxo-1-(propan-2-yl)-1,2-dihydroquinolin-3-yl}oxy)-N-methylacetamide] | ≥ 70% | < 10 nM |  | 
11 | CNC(=O)COc1cc2cc(Nc3nc(N4CCC(O[C@H]5C[C@H](N6CCCC7(CCN(c8ccc9c(c8F)CN(C8CCC(=O)NC8=O)C9=O)C7)C6)C5)CC4)ncc3Cl)ccc2n(C(C)C)c1=O (stereo partly drawn) [Compound 401, 2-({6-[(5-chloro-2-{4-[(1r,3r)-3-{2-[2-(2,6-dioxopiperidin-3-yl)-4-fluoro-1-oxo-2,3-dihydro-1H-isoindol-5-yl]-2,7-diazaspiro[4.5]decan-7-yl}cyclobutoxy]piperidin-1-yl}pyrimidin-4-yl)amino]-2-oxo-1-(propan-2-yl)-1,2-dihydroquinolin-3-yl}oxy)-N-methylacetamide] | ≥ 70% | < 10 nM |  | 
12 | CNC(=O)COc1cc2cc(Nc3nc(N4CCC(O[C@H]5C[C@H](N6CCCN(c7ccc8c(c7C)C(=O)N(C7CCC(=O)NC7=O)C8=O)CC6)C5)CC4)ncc3Cl)ccc2n(C(C)C)c1=O (stereo partly drawn) [Compound 417, 2-({6-[(5-chloro-2-{4-[(1r,3r)-3-{4-[2-(2,6-dioxopiperidin-3-yl)-4-methyl-1,3-dioxo-2,3-dihydro-1H-isoindol-5-yl]-1,4-diazepan-1-yl}cyclobutoxy]piperidin-1-yl}pyrimidin-4-yl)amino]-2-oxo-1-(propan-2-yl)-1,2-dihydroquinolin-3-yl}oxy)-N-methylacetamide] | ≥ 70% | < 10 nM |  | 

Source: patent US11986532B2 (Arvinas Operations, Inc., priority 2021, dated 2024)
